{
  "source": "patent US9493522B2",
  "about": "“Discovery of candidate biomarkers of in vivo apoptosis by global profiling of caspase cleavage sites” (THE REGENTS OF THE UNIVERSITY OF CALIFORNIA, priority 2008, dated 2016)",
  "key": {"Jurkat cells [1]": {"test_system": "Jurkat cells", "assay": "Immunoblotting of caspase substrate proteolysis during apoptosis", "assay_type": "cell-based, human", "procedure": "Jurkat cells at a density of 1×10^6 cells/ml were treated with etoposide (50 μM) for 0, 2, 4, 8, 12, and 24 hours prior to harvesting. Harvested cells were pelleted at 2,000×g and 25° C. for 5 minutes, washed twice with phosphate buffered saline, and lysed at a concentration of 2×10^7 cells/ml in 1.0% SDS, phosphate buffered saline, 100 μM Z-VAD-FMK, 100 μM E-64, 1 mM PMSF, 1 mM AEBSF, 5 mM EDTA, and 10 mM sodium butyrate. Whole cell lysates were sonicated to shear genomic DNA, normalized to a protein concentration of approximately 2 mg/ml, as determined by BCA assay (Pierce). Cell lysates for each apoptotic timepoint were then analyzed by SDS-PAGE and Western blot. Mouse monoclonal anti-caspase-3 (#9668) and rabbit polyclonal anti-HDAC3 (#2632) antibodies were purchased from Cell Signaling Technology. Mouse monoclonal anti-DFF45 (#611036) antibody was purchased from BD Transduction Laboratories. Goat polyclonal anti-N-Cor (#sc-1611) and rabbit polyclonal anti-HDAC7 (#sc-11412) antibodies were purchased from Santa Cruz Biotechnology. Rabbit polyclonal anti-TBLR1 (#A300-408A), rabbit polyclonal anti-SHARP (#A301-119A), and rabbit polyclonal anti-RBBP7 (#A300-959A) antibodies were purchased from Bethyl Laboratories. Rabbit polyclonal anti-SMRTe (#06-891) antibody was purchased from Millipore. Western blots were imaged using SuperSignal West Femto Substrate (Pierce) with a Fluor Chem SP imager (Alpha Innotech). DNA fragmentation of whole cell DNA was analyzed by agarose gel with the Apoptotic DNA Ladder Kit (Roche)."}, "Jurkat cells [2]": {"test_system": "Jurkat cells", "assay": "Subtiligase N-terminal labeling and LC/MS/MS degradomic analysis of apoptotic Jurkat cells", "assay_type": "cell-based, human", "conditions": "Jurkat cells treated with etoposide (50 μM, 12 hours)", "experimental": "Normal cells were harvested for experiments at a density of 1×10^6 cells/ml. For apoptotic samples, cells at a density of 1×10^6 cells/ml were treated with etoposide (50 μM) for 12 hours prior to harvesting. Harvested cells (0.1 to 1 billion) were pelleted at 2,000×g and 25° C. for 5 minutes, washed twice with phosphate buffered saline, and lysed at a typical concentration of 2×10^8 cells/ml in 1.0% TRITON X-100 detergent, 100 mM BICINE pH 8.0, 100 μM Z-VAD-FMK, 100 μM E-64, 1 mM PMSF, 1 mM AEBSF, and 5 mM EDTA. […] Clarified supernatant was immediately used in ligation reactions at a protein concentration of approximately 20 mg/ml, as determined by Bradford assay (Bio-Rad).\nSubtiligase (1 μM), biotinylated peptide ester (1 mM), and DTT (2 mM) were added to either control or apoptotic cell lysate. Ligation reactions were typically left to proceed at room temperature for 60 minutes. Samples were then denatured by direct addition of solid guanidine hydrochloride to a final concentration of 6 M, reduced by addition of neutralized TCEP (2 mM), heated at 95° C. for 15 minutes, cooled to room temperature, and alkylated by addition of iodoacetamide (6 mM) and incubation at room temperature in the dark for 1 hour. […]"}, "[3]": {"conditions": "Jurkat cells, 50 μM etoposide, FIG. 5A"}},
  "note": "Residues, ends and D or L forms follow the SMILES beside them. *: point of attachment. Cbz = O=C(OCc1ccccc1)*; CH2F = FC*",
  "data": [
    {"compound": "COC(=O)C[C@H](NC(=O)[C@H](C)NC(=O)[C@@H](NC(=O)OCc1ccccc1)C(C)C)C(=O)CF", "note": "[Z-VAD(OMe)-fmk] (Cbz-Val-Ala-Asp(OMe)-CH2F)", "values": [
      {"measurement": "Cleavage of representative substrates HDAC7, Ku80, RCOR2, TBLR1, and UBP36 in presence of caspase inhibitor", "setting": "Jurkat cells [1]; etoposide-treated Jurkat cells, FIG. 5B", "result": "blocked"}
    ]},
    {"compound": "COc1cc([C@@H]2c3cc4c(cc3[C@@H](O[C@@H]3O[C@@H]5CO[C@@H](C)O[C@H]5[C@H](O)[C@H]3O)[C@H]3COC(=O)[C@H]23)OCO4)cc(OC)c1O", "note": "[etoposide]", "values": [
      {"measurement": "N-termini identified in apoptotic cells derived from P1 aspartate cleavages", "setting": "Jurkat cells [2]; large-scale (2D LC/MS/MS) experiments", "result": 43, "unit": "%"},
      {"measurement": "N-termini identified in apoptotic cells derived from P1 aspartate cleavages", "setting": "Jurkat cells [2]; small-scale (1D LC/MS/MS) experiments", "result": 43, "unit": "%"},
      {"measurement": "Proteolysis of CCTδ, Ku80, LCOR, and RBBP7 (time course, immunoblot)", "setting": "Jurkat cells [1]; [3]", "result": "partial cleavage"},
      {"measurement": "Proteolysis of HDAC6, HDAC7, N-CoR, RCOR2, SHARP, TBLR1, UBP5, and UBP36 (time course, immunoblot)", "setting": "Jurkat cells [1]; [3]", "result": "full cleavage"}
    ]}
  ]
}
